In this assay the target is T1, human EP1 receptor (Homo sapiens, UniProt P34995).
T1 construct: expressed in transfected cells; host or cells: CHO-K1
T1 sequence (P34995 1-402): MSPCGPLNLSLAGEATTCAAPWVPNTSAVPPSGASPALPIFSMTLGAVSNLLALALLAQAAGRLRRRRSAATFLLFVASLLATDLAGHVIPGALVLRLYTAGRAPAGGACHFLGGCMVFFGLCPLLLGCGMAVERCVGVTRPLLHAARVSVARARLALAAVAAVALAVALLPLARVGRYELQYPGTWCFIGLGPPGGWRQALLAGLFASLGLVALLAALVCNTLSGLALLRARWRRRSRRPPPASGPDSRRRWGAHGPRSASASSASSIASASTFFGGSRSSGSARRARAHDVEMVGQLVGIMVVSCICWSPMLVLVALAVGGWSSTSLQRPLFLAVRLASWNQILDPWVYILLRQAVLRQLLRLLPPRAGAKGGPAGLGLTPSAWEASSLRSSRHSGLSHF
Nature of the assay: human EP1 calcium mobilisation assay. Conditions: human EP1, PGE2-induced calcium mobilisation in CHO-K1 cells; free bases or sodium salts; averages of a number of experiments; read-out: functional pKi value (converted). In kind it is cell-based. How it is done:
Briefly, the antagonist properties of compounds are assessed by their ability to inhibit the mobilisation of intracellular calcium ([Ca^2+]i) in response to activation of EP1 or EP3 receptors by the natural agonist hormone prostaglandin E2 (PGE2). Increasing concentrations of antagonist reduce the amount of calcium that a given concentration of PGE2 can mobilise. The net effect is to displace the PGE2 concentration-effect curve to higher concentrations of PGE2. The amount of calcium produced is assessed using a calcium-sensitive fluorescent dye such as Fluo-4, AM and a suitable instrument such as a Fluorimetric Imaging Plate Reader (FLIPR). Increasing amounts of [Ca^2+]i produced by receptor activation increase the amount of fluorescence produced by the dye and give rise to an increasing signal. The signal may be detected using the FLIPR instrument and the data generated may be analysed with suitable curve-fitting software.
The human EP1 or EP3 calcium mobilisation assay (hereafter referred to as ‘the calcium assay’) utilises Chinese hamster ovary-K1(CHO-K1) cells into which a stable (pCIN; BioTechniques 20 (1996): 102-110) vector containing either EP1 or EP3 cDNA has previously been transfected. Cells are cultured in suitable flasks containing culture medium such as DMEM:F-12 supplemented with 10% v/v foetal calf serum, 2 mM L-glutamine, 0.25 mg/ml geneticin, 100 μM flurbiprofen and 10 μg/ml puromycin.
For assay, cells are harvested using a proprietary reagent that dislodges cells such as Versene. Cells are re-suspended in a suitable quantity of fresh culture media for introduction into a 384-well plate. Following incubation for 24 hours at 37° C. the culture media is replaced with a medium containing Fluo-4 and the detergent pluronic acid, and a further incubation takes place. Concentrations of compounds are then added to the plate in order to construct concentration-effect curves. This may be performed on the FLIPR in order to assess the agonist properties of the compounds. Concentrations of PGE2 are then added to the plate in order to assess the antagonist properties of the compounds.
The data so generated may be analysed by means of a computerised curve-fitting routine. The concentration of compound that elicits a half-maximal inhibition of the calcium mobilisation induced by PGE2 (pIC50) may then be estimated.

Molecules are shown by their SMILES. Counter-ions that a name gives are not always drawn.

For the compound `COc1ccc2[nH]c(-c3ccc(Cc4cc(Cl)ccc4OCc4ccccc4)o3)nc2c1` [Example 100, 2-[5-({5-Chloro-2-[(phenylmethyl)oxy]phenyl}methyl)-2-furanyl]-5-(methyloxy)-1H-benzimidazole], the Ki was below 1 µM.

On to `CC(C)COc1ccc(Cl)cc1Cc1ccc(-c2nc3cnc4ccccc4c3[nH]2)o1` [Example 118, 2-[5-({5-Chloro-2-[(2-methylpropyl)oxy]phenyl}-methyl)-2-furanyl]-1H-imidazo[4,5-c]quinoline], for which the Ki is below 1 µM.

As for `CC(C)COc1ccc(Cl)cc1Cc1ccc(C(=O)Nc2ccccc2)o1` [Example 34, 5-({5-Chloro-2-[(2-methylpropyl)oxy]phenyl}methyl)-N-phenyl-2-furancarboxamide], the Ki is below 1 µM.

With `O=C(O)c1ccc(Cc2cc(Cl)ccc2OCc2ccncc2)o1` [Example 28, Sodium 5-({5-chloro-2-[(4-pyridinylmethyl)oxy]phenyl}methyl)-2-furancarboxylate], the Ki is at most 0.01 µM.

For `Clc1ccc(OCc2ccccc2)c(Cc2ccc(-c3nc4ccc(CN5CCCC5)cc4[nH]3)o2)c1` [Example 140, 2-[5-({5-Chloro-2-[(phenylmethyl)oxy]-phenyl}methyl)-2-furanyl]-5-(1-pyrrolidinylmethyl)-1H-benzimidazoledihydrochloride], the Ki is below 1 µM.

For `O=C(Nc1c(F)cccc1F)c1ccc(Cc2cc(Cl)ccc2OCc2ccccc2F)o1` [Example 81, 5-[(5-Chloro-2-{[(2-fluorophenyl)methyl]oxy}phenyl)methyl]-N-(2,6-difluorophenyl)-2-furancarboxamide], the Ki is below 1 µM.

As to `CC(C)COc1ccc(Cl)cc1Cc1ccc(-c2nc3ccc(CN(C)CC4CCOCC4)cc3[nH]2)o1` [Example 152, ({2-[5-({5-Chloro-2-[(2-methylpropyl)oxy]-phenyl}methyl)-2-furanyl]-1H-benzimidazol-5-yl}methyl)methyl(tetrahydro-2H-pyran-4-ylmethyl)aminedihydrochloride], the Ki is below 1 µM.

On to `Clc1ccc(OCc2ccccc2)c(Cc2ccc(-c3nc4cnccc4[nH]3)o2)c1` [Example 120, 2-[5-({5-Chloro-2-[(phenylmethyl)oxy]-phenyl}methyl)-2-furanyl]-1H-imidazo[4,5-c]pyridine hydrochloride], for which the Ki was below 1 µM.

With `CCCOc1ccc(Cl)cc1Cc1ccc(C(=O)Nc2c(F)cccc2F)o1` [Example 93, 5-{[5-Chloro-2-(propyloxy)phenyl]methyl}-N-(2,6-difluorophenyl)-2-furancarboxamide], the Ki was below 1 µM.

Regarding `CCCOc1ccc(Cl)cc1Cc1ccc(C(=O)O)o1` [Example 1, Sodium 5-{[5-chloro-2-(propyloxy)phenyl]methyl}-2-furancarboxylate], the Ki is below 1 µM.

Turning to `CC(C)COc1ccc(Cl)cc1Cc1ccc(C(=O)NCc2cccc3ccccc23)o1` [Example 47, 5-({5-Chloro-2-[(2-methylpropyl)oxy]phenyl}methyl)-N-(1-naphthalenylmethyl)-2-furancarboxamide], the Ki was below 1 µM.

Regarding `O=C(Nc1c(F)cccc1F)c1ccc(Cc2cc(Cl)ccc2OCc2cccc(F)c2F)o1` [Example 87, 5-[(5-Chloro-2-{[(2,3-difluorophenyl)methyl]oxy}-phenyl)methyl]-N-(2,6-difluorophenyl)-2-furancarboxamide], the Ki was below 1 µM.

As for `Cc1cc(C(=O)NCc2ccccc2)oc1Cc1cc(Cl)ccc1OCc1ccccc1` [Example 31, 5-({5-Chloro-2-[(phenylmethyl)oxy]phenyl}methyl)-4-methyl-N-(phenylmethyl)-2-furancarboxamide], the Ki was below 1 µM.

Regarding `CC(C)COc1ccc(Cl)cc1Cc1ccc(-c2cc[nH]n2)o1` [Example 168], the Ki was below 1 µM.

Turning to `CC(C)COc1ccc(Cl)cc1Cc1ccc(-c2nc3cc(CCN4CCCC4)ccc3[nH]2)o1` [Example 161, 2-[5-({5-Chloro-2-[(2-methylpropyl)oxy]-phenyl}methyl)-2-furanyl]-5-[2-(1-pyrrolidinyl)ethyl]-1H-benzimidazoledihydrochloride], the Ki is below 1 µM.

Take `CC(C)CCOc1ccc(Cl)cc1Cc1ccc(C(=O)O)o1` [Example 11, Sodium 5-({5-chloro-2-[(3-methylbutyl)oxy]phenyl}methyl)-2-furancarboxylate]: the Ki is below 1 µM.

For the compound `O=C(Nc1ccccc1-c1ccccc1)c1ccc(Cc2cc(Cl)ccc2OCc2ccccc2)o1` [Example 75, N-2-biphenylyl-5-({5-chloro-2-[(phenylmethyl)oxy]-phenyl}methyl)-2-furancarboxamide], the Ki is above 1 µM.

As to `NC(=O)c1ccc(Cc2cc(Cl)ccc2OCc2ccccc2)o1` [Example 78, 5-({5-Chloro-2-[(phenylmethyl)oxy]-phenyl}methyl)-2-furancarboxamide], the Ki was below 1 µM.

For the compound `CN(C)c1ccc(CNC(=O)c2ccc(Cc3cc(Cl)ccc3OCc3ccccc3)o2)cc1` [Example 54, 5-({5-Chloro-2-[(phenylmethyl)oxy]phenyl}methyl)-N-{[4-(dimethylamino)phenyl]methyl}-2-furancarboxamide], the Ki is below 1 µM.

Regarding `Cc1cccc(Cl)c1NC(=O)c1ccc(Cc2cc(Cl)ccc2OCc2ccccc2)o1` [Example 74, N-(2-Chloro-6-methylphenyl)-5-({5-chloro-2-[(phenylmethyl)oxy]-phenyl}methyl)-2-furancarboxamide], the Ki is below 1 µM.

In the case of `O=C(O)c1ccc(Cc2cc(Cl)ccc2OCc2cc(F)c(F)c(F)c2)o1` [Example 24, Sodium 5-[(5-chloro-2-{[(3,4,5-trifluorophenyl)methyl]oxy}phenyl)methyl]-2-furancarboxylate], the Ki is at most 0.01 µM.

In the case of `Cc1cc(C(=O)NCc2ccccc2)oc1Cc1cc(Cl)ccc1OCC(C)C` [Example 32, 5-({5-Chloro-2-[(2-methylpropyl)oxy]phenyl}methyl)-4-methyl-N-(phenylmethyl)-2-furancarboxamide], the Ki is below 1 µM.

With `CC(C)COc1ccc(Cl)cc1Cc1ccc(C(N)=O)o1` [Example 68, 5-({5-Chloro-2-[(2-methylpropyl)oxy]-phenyl}methyl)-2-furancarboxamide], the Ki is below 1 µM.

As for `CC(C)COc1ccc(Cl)cc1Cc1ccc(-c2nc3cc(C(F)(F)F)ccc3[nH]2)o1` [Example 126, 2-[5-({5-Chloro-2-[(2-methylpropyl)oxy]phenyl}-methyl)-2-furanyl]-5-(trifluoromethyl)-1H-benzimidazole], the Ki is below 1 µM.

In the case of `CC(C)COc1ccc(Cl)cc1Cc1ccc(-c2nc3cc(Cl)ccc3[nH]2)o1` [Example 123, 5-Chloro-2-[5-({5-chloro-2-[(2-methylpropyl)oxy]phenyl}-methyl)-2-furanyl]-1H-benzimidazole], the Ki was below 1 µM.

In the case of `CC(C)Oc1ccc(Cl)cc1Cc1ccc(C(=O)O)o1` [Example 2, Sodium 5-({5-chloro-2-[(1-methylethyl)oxy]phenyl}methyl)-2-furancarboxylate], the Ki is below 1 µM.

In the case of `CC(C)COc1ccc(Cl)cc1Cc1ccc(NC(=O)OC(C)(C)C)o1` [Example 29, 1,1-Dimethylethyl[5-({5-chloro-2-[(2-methylpropyl)oxy]phenyl}methyl)-2-furanyl]carbamate], the Ki is below 1 µM.

With `CC(C)COc1ccc(Cl)cc1Cc1ccc(C(=O)NC(C)C)o1` [Example 55, 5-({5-Chloro-2-[(2-methylpropyl)oxy]phenyl}methyl)-N-(1-methylethyl)-2-furancarboxamide], the Ki is below 1 µM.

Consider `O=C(Nc1c(F)cccc1F)c1ccc(Cc2cc(Cl)ccc2OCc2ccc(Cl)cc2Cl)o1` [Example 89, 5-[(5-Chloro-2-{[(2,4-dichlorophenyl)methyl]-oxy}phenyl)methyl]-N-(2,6-difluorophenyl)-2-furancarboxamide], for which the Ki is below 1 µM.

As to `Clc1ccc(OCc2ccccc2)c(Cc2ccc(-c3nc4ccc(CN5CCCCC5)cc4[nH]3)o2)c1` [Example 141, 2-[5-({5-Chloro-2-[(phenylmethyl)oxy]-phenyl}methyl)-2-furanyl]-5-(1-piperidinylmethyl)-1H-benzimidazoledihydrochloride], the Ki is below 1 µM.

The values above are taken from patent US20080287430A1, “Furan Compounds Useful As Ep1 Receptor Antagonists” (priority 2005, published 2008).
